Structures can show the parent of a compound that is named as a salt.

The term IC50 denotes the midpoint of a concentration-inhibition curve. As usually defined, the inhibition is the drop in the measured response relative to a control, in per cent. Higher therefore signals a strong effect.

The first assay relates to VCAM-1. Briefly: VCAM-1 assay with ELISA readout (Examples 5-6). Format: cell-based. The following applies: 16 h, TNF added with compound, incubated overnight (approximately 16 hours). Here is the method: Two to four confluent P150 plates are trypsinized and the cells transferred to a 50 mL conical centrifuge tube. The cells are pelleted, resuspended, and counted using the trypan blue exclusion method.
Cells are resuspended at a concentration of 36,000 cells/mL and 1 mL is aliquoted per well.
Cells are split into 24 well tissue culture plates. The cells in each well should be approximately 90-95% confluent by the following day. Cells should not be older than passage 8.
Compounds are initially screened at 50 μM and 10 μM. A 50 mM stock solution for each compound is prepared in culture medium. The stock solution is diluted to 5 mM and 1 mM. When 10 μL of the 5 mM solution is added to the well (1 mL medium/well), the final concentration will be 50 μM. Adding 10 μL of the 1 mM solution to the well will give a final concentration of 10 μM.
Compounds which will not go into solution in culture medium are resuspended in DMSO at a concentration of 25 mM. The stock solution is then diluted to the final concentration in culture medium. The old medium is aspirated and 1 mL of the new medium with the compound is added. For example, if the final concentration is 50 µM, the 2 μL of the 25 mM stock is added per mL of culture medium. The […] solution is diluted for lower concentrations.
The compounds are added to the plate (each compound is done in duplicate). One plate is done for VCAM expression and one plate is done for ICAM expression.
Immediately after the compounds are added, TNF is added to each well. 100 units/mL TNF is usually added to each well. Since each lot of TNF varies in the number of units, each new lot is titrated to determine the optimum concentration. Therefore this concentration will change. If 100 units/mL is being used, dilute the TNF to 10 units/μL and add 10 μL to each well.
The plates are incubated at 37° C., 5% CO2 overnight (approximately 16 hours). The next day the plates are checked under the microscope to see if there are any visual signs of toxicity. Records are made of any cell death, debris, or morphology changes, as well as insoluble compounds (particulate or turbity).
In order to assess MCP-1, the media (500 μL) is saved and frozen at −70° C. Wash cells once with roughly 1 ml/well of Hanks Balance Salt Solution (HBSS) or PBS. Gently empty the wash solution and then tap the plate onto paper towels. Add either 250 μL/well of HBSS+5% FCCS to the plank (no primary antibody wells) or 250 μL/well of primary antibody diluted in HBSS+5% FCS. Incubate for 30 minutes at 37° C. Wash the wells twice with 0.5 mL/well HBSS or PBS and gently tap the plates onto paper towels after the last wash. Add 250 μL/well of HRP-conjugated second antibody diluted in HBSS+5% FCS to every well including the blank wells (no primary antibody). Incubate at 37° C. for 30 minutes. Wash the wells four times with 0.5 mL/well HBSS or PBS and gently tap the plates onto paper towels after the last wash. Add 250 μL/well of substrate solution. Incubate at room temperature in the dark until there is adequate color development (blue). Note the length of time incubation was performed (typically 15-30 minutes). Add 75 μL/well stopper solution (8N sulfuric acid), and read at 450 nm.
In general terms: ELISA stands for enzyme-linked immunosorbent assay.
With `CC(C)(Sc1cc(C(C)(C)C)c(O)c(C(C)(C)C)c1)Sc1cc(C(C)(C)C)c(OCCCC(=O)O)c(C(C)(C)C)c1` [Butanoic acid, 4-[4-[[1-[[3,5-bis(1,1-dimethylethyl)-4-hydroxyphenyl]thio]-1-methylethyl]thio]-2,6-bis(1,1-dimethylethyl)phenoxy]-], the IC50 came to 11 µM.
As to `CC(C)(Sc1ccc(OCCCC(=O)O)cc1)Sc1cc(C(C)(C)C)c(O)c(C(C)(C)C)c1` [Butanoic acid, 4-[4-[[1-[[3,5-bis(1,1-dimethylethyl)-4-hydroxyphenyl]thio]-1-methylethyl]thio]phenoxy]-], the IC50 was found to be 19 µM.
Still for that read-out and setting: under `CC(C)(CO)CC(=O)Oc1c(C(C)(C)C)cc(SC(C)(C)Sc2cc(C(C)(C)C)c(O)c(C(C)(C)C)c2)cc1C(C)(C)C` [Butanoic acid, 4-hydroxy-3,3-dimethyl-, 4-[[1-[[3,5-bis(1,1-dimethylethyl)-4-hydroxyphenyl]thio]-1-methylethyl]thio]-2,6-bis(1,1-dimethylethyl)phenyl ester] stands 110 µM.
The same measure, in the same setting: as for `CC(C)(Sc1cc(C(C)(C)C)c(O)c(C(C)(C)C)c1)Sc1cc(C(C)(C)C)c(OC[C@@H](O)[C@@H](O)[C@H](O)[C@@H](O)CO)c(C(C)(C)C)c1` [D-Glucitol, 6-O-[4-[[1-[[3,5-bis(1,1-dimethylethyl)-4-hydroxyphenyl]thio]-1-methylethyl]thio]-2,6-bis(1,1-dimethylethyl)phenyl]-], the figure is 15 µM; as for `CC(C)(Sc1cc(C(C)(C)C)c(O)c(C(C)(C)C)c1)Sc1cc(C(C)(C)C)c(OC[C@H]2OC(O)[C@H](O)[C@@H](O)[C@@H]2O)c(C(C)(C)C)c1` (stereo partly drawn) [D-Glucopyranose, 6-O-[4-[[1-[[3,5-bis(1,1-dimethylethyl)-4-hydroxyphenyl]thio]-1-methylethyl]thio]-2,6-bis(1,1-dimethylethyl)phenyl]-], 10 µM.
The same measure, in the same setting: as for `CC(C)(Sc1cc(C(C)(C)C)c(O)c(C(C)(C)C)c1)Sc1cc(C(C)(C)C)c(OCC(=O)N[C@@H](CCC(=O)O)C(=O)O)c(C(C)(C)C)c1` [Glutamic acid, N-[[4-[[1-[[3,5-bis(1,1-dimethylethyl)-4-hydroxyphenyl]thio]-1-methylethyl]thio]-2,6-bis(1,1-dimethylethyl)phenoxy]acetyl]-], the figure is 75 µM; as for `CC(C)(Sc1cc(C(C)(C)C)c(O)c(C(C)(C)C)c1)Sc1cc(C(C)(C)C)c(OC(=O)CN)c(C(C)(C)C)c1` [Glycine, 4-[[1-[[3,5-bis(1,1-dimethylethyl)-4-hydroxyphenyl]thio]-1-methylethyl]thio]-2,6-bis(1,1-dimethylethyl)phenyl ester], 5 µM.
Regarding `CC(C)(Sc1cc(C(C)(C)C)c(O)c(C(C)(C)C)c1)Sc1cc(C(C)(C)C)c(OCC(O)CNCC(=O)O)c(C(C)(C)C)c1` (centres unmarked) [Glycine, N-[3-[4-[[1-[[3,5-bis(1,1-dimethylethyl)-4-hydroxyphenyl]thio]-1-methylethyl]thio]-2,6-bis(1,1-dimethylethyl)phenoxy]2-hydroxypropyl]-], the IC50 was found to be 16 µM.
`CC(C)(Sc1cc(C(C)(C)C)c(O)c(C(C)(C)C)c1)Sc1cc(C(C)(C)C)c(OC(=O)CCCC(=O)O)c(C(C)(C)C)c1` [Pentanedioic acid mono[4-[[1-[[3,5-bis(1,1-dimethylethyl)-4-hydroxyphenyl]thio]-1-methylethyl]thio]-2,6-bis(1,1-dimethylethyl)phenyl] ester]: the IC50 was found to be 8.7 µM.
On the same count and under the same terms, as for `CCOCC(O)COc1c(C(C)(C)C)cc(SC(C)(C)Sc2cc(C(C)(C)C)c(O)c(C(C)(C)C)c2)cc1C(C)(C)C` (centres unmarked) [Phenol, 4-[[1-[[3,5-bis(1,1-dimethylethyl)-4-(3-ethoxy-2-hydroxypropoxy)phenyl]thio]-1-methylethyl]thio]-2,6-bis(1,1-dimethylethyl)-], the figure is 75 µM.
Still for that read-out and setting: under `CC(C)(Sc1cc(C(C)(C)C)c(O)c(C(C)(C)C)c1)Sc1cc(C(C)(C)C)c(OCCCCO)c(C(C)(C)C)c1` [Phenol, 4-[[1-[[3,5-bis(1,1-dimethylethyl)-4-(4-hydroxybutoxy)phenyl]thio]-1-methylethyl]thio]-2,6-bis(1,1-dimethylethyl)-] stands 125 µM.
Still for that read-out and setting: under `CC(C)(Sc1cc(C(C)(C)C)c(O)c(C(C)(C)C)c1)Sc1cc(C(C)(C)C)c(OC=CCO)c(C(C)(C)C)c1` [Phenol, 4-[[1-[[3,5-bis(1,1-dimethylethyl)-4-[[3-hydroxy-1-propenyl)oxy]phenyl]thio]-1-methylethyl]thio]-2,6-bis(1,1-dimethylethyl)-] stands 55 µM; under `CC(C)(Sc1cc(C(C)(C)C)c(O)c(C(C)(C)C)c1)Sc1cc(C(C)(C)C)c(OCCCCN)c(C(C)(C)C)c1` [Phenol, 4-[[1-[[4-(4-aminobutoxy)-3,5-bis(1,1-dimethylethyl)phenyl]thio]-1-methylethyl]thio]2,6-bis(1,1-dimethylethyl)-], 8 µM.
As to `CC(C)(Sc1ccc(OCCCCN)cc1)Sc1cc(C(C)(C)C)c(O)c(C(C)(C)C)c1` [Phenol, 4-[[1-[[4-(4-aminobutoxy)phenyl]thio]-1-methylethyl]thio]-2,6-bis(1,1-dimethylethyl)-], the IC50 worked out at 5 µM.
On the same count and under the same terms, under `CN(C)c1ccc(CCOc2c(C(C)(C)C)cc(SC(C)(C)Sc3cc(C(C)(C)C)c(O)c(C(C)(C)C)c3)cc2C(C)(C)C)cc1` [Phenol, 4-[[1-[[4-[2-[4-(dimethylamino)phenyl]ethoxy]-3,5-bis(1,1-dimethylethyl)phenyl]thio]-1-methylethyl]thio]-2,6-bis(1,1-dimethylethyl)-] stands 55 µM.

The assay is the same for the next values; noted with them: TNF added with compound, incubated overnight (approximately 16 hours).
With `CC(C)(Sc1cc(C(C)(C)C)c(OC(=O)CN)c(C(C)(C)C)c1)Sc1cc(C(C)(C)C)c(OC(=O)CN)c(C(C)(C)C)c1` [Glycine, (1-methylethylidene)bis[bis[thio-2,6-bis(1,1-dimethylthyl)-4,1-phenylene]]ester, dihydrochloride], the IC50 is greater than 50 µM.
Same read-out and setting: as for `CC(C)(Sc1cc(C(C)(C)C)c(O)c(C(C)(C)C)c1)Sc1cc(C(C)(C)C)c(OCC2OC2CO)c(C(C)(C)C)c1` (centres unmarked) [Oxiranemethanol, 3-[[4-[[1-[[3,5-bis(1,1-dimethylethyl)-4-hydroxyphenyl]thio]-1-methylethyl]thio]-2,6-bis(1,1-dimethylethyl)phenoxy]methyl]-], the figure is greater than 100 µM; as for `CC(C)(Sc1cc(C(C)(C)C)c(O)c(C(C)(C)C)c1)Sc1cc(C(C)(C)C)c(OCC(O)C2CO2)c(C(C)(C)C)c1` (stereo not drawn) [Oxiranemethanol, α-[[4-[[1-[[3,5-bis(1,1-dimethylethyl)-4-hydroxyphenyl]thio]-1-methylethyl]thio]-2,6-bis(1,1-dimethylethyl)phenoxy]methyl]-], 45 µM.
On the same count and under the same terms, under `CC(C)(Sc1cc(C(C)(C)C)c(O)c(C(C)(C)C)c1)Sc1cc(C(C)(C)C)c(OCCCCN)c(C(C)(C)C)c1` [Phenol, 4-[[1-[[4-(4-aminobutoxy)-3,5-bis(1,1-dimethylethyl)phenyl]thio]-1-methylethyl]thio]2,6-bis(1,1-dimethylethyl)-] stands 9 µM.
On the same count and under the same terms, under `CC1(C)OC2OC(COc3c(C(C)(C)C)cc(SC(C)(C)Sc4cc(C(C)(C)C)c(O)c(C(C)(C)C)c4)cc3C(C)(C)C)C3OC(C)(C)OC3C2O1` [α-D-Galactopyranose, 6-O-[4-[[1-[[3,5-bis(1,1-dimethylethyl)-4-hydroxyphenyl]thio]-1-methylethyl]thio]-2,6-bis(1,1-dimethylethyl)phenyl]-1,2:3,4-bis-O-(1-methylethylidene)] stands 45 µM.

The same assay, now with this note: at 20 μM.
As to `Cc1cc(SC(C)(C)Sc2cc(C(C)(C)C)c(O)c(C(C)(C)C)c2)cc(C)c1OC(=O)CN` [Glycine, 4-[[1-[[3,5-bis(1,1-dimethylethyl)-4-hydroxyphenyl]thio]-1-methylethyl]thio]-2,6-dimethylphenyl ester], 20 µM produced 10% inhibition.

The same assay, now with this note: at 50 μM.
`CN(C)CCCOc1c(C(C)(C)C)cc(SC(C)(C)Sc2cc(C(C)(C)C)c(O)c(C(C)(C)C)c2)cc1C(C)(C)C` [Phenol, 4-[[1-[[4-[3-(dimethylamino)propoxy]-3,5-bis(1,1-dimethylethyl)phenyl]thio]-1-methylethyl]thio]-2,6-bis(1,1-dimethylethyl)-] registered an inhibition at 50 µM of 22%.
Consider `CC(C)(Sc1cc(C(C)(C)C)c(O)c(C(C)(C)C)c1)Sc1cc(C(C)(C)C)c(OC[C@H]2O[C@@H](O)[C@H](O)[C@@H](O)[C@@H]2O)c(C(C)(C)C)c1` [β-D-Glucopyranose, 6-O-[4-[[1-[[3,5-bis(1,1-dimethylethyl)-4-hydroxyphenyl]thio]-1-methylethyl]thio]-2,6-bis(1,1-dimethylethyl)phenyl]-], for which the inhibition at 50 µM was 30%.

The values are drawn from patent publication US20060058268A1, “Compounds and methods for treating diabetic vascular diseases” (priority 2004, published 2006).
